For the series the following is noted: 298.15 K, Ring tensiometer.

The text below walks through data of the NIST ThermoML archive (doi:10.1016/j.fluid.2017.06.026).

Numbers after ± are expanded uncertainties.

As to `CCCCCOP(=O)(OCCCCC)OCCCCC` [tripentyl phosphate], the surface tension liquid-gas was found to be 26.2 ± 3 mN/m.

In the case of `O=P(OCC(F)(F)C(F)(F)C(F)(F)C(F)F)(OCC(F)(F)C(F)(F)C(F)(F)C(F)F)OCC(F)(F)C(F)(F)C(F)(F)C(F)F` [tris (1H,1H,5H-octafluoropentyl) phosphate], the surface tension liquid-gas was found to be 22.9 ± 3 mN/m.
